Drawing on ChEMBL document CHEMBL3994588, “Importance of 5/6-aryl substitution on the pharmacological profile of 4'-((2-propyl-1H-benzo[d]imidazol-1-yl)methyl)-[1,1'-biphenyl]-2-carboxylic acid derived PPARγ agonists” (Eur J Med Chem, 2017), this text covers EC50 and Activity for 16 compounds.

pEC50: −log10 of the molar value.

In general, pEC50 refers to the EC50 on a negative log10 scale, so that one unit is a factor of ten.

Experiment [1] has as its target T1, Peroxisome proliferator-activated receptor gamma (Homo sapiens, UniProt P37231).
T1 sequence (P37231 whole entry): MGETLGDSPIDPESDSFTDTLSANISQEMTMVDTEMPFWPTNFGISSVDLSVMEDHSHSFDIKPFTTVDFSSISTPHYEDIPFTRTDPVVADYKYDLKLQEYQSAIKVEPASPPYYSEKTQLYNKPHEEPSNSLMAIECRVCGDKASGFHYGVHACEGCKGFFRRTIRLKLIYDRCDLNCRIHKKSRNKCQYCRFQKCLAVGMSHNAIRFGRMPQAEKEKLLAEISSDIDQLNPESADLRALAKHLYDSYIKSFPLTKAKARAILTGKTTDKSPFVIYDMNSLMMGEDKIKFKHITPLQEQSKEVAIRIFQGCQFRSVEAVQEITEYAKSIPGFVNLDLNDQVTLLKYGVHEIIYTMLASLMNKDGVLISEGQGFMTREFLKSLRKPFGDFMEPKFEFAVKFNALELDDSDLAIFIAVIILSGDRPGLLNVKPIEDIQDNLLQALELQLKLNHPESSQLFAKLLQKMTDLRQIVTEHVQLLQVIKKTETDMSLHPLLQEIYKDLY
Kind of experiment: (§1) Transactivation of Gal4 fused human PPARgamma LBD expressed in African green monkey COS7 cells after 42 hrs by dual luciferase reporter gene assay. The experiment is classed as cell-based. To be noted: for pEC50: read-out: EC50. For orientation: In a reporter assay the amount or activity of a reporter protein is the signal.

The target in experiment [2] is T2, Peroxisome proliferator-activated receptor gamma (Homo sapiens) (UniProt P37231).
T2 sequence (whole entry): T1 sequence (P37231 whole entry)
The experiment is described as §1. It counts as cell-based.

On to `CCCc1nc2cc(-c3cccc(Cl)c3)ccc2n1Cc1ccc(-c2ccccc2C(=O)O)cc1`, for which the EC50 entry in experiment [1] is “Not Active”.

On to `CCCc1nc2cc(-c3ccc(OC)cc3)ccc2n1Cc1ccc(-c2ccccc2C(=O)O)cc1`, for which, in experiment [1], the negative-log EC50 (pEC50) was 6.39. In addition, the Activity entry in experiment [2] is “Dose-dependent effect”.

Regarding `CCCc1nc2ccc(-c3cccc(OC)c3)cc2n1Cc1ccc(-c2ccccc2C(=O)O)cc1`, the pEC50 in experiment [1] is 5.87. Further, the Activity result in experiment [2] was “Dose-dependent effect”.

Regarding `CCCc1nc2ccc(-c3cccc(Cl)c3)cc2n1Cc1ccc(-c2ccccc2C(=O)O)cc1`, the pEC50 in experiment [1] is 6.11. The Activity entry in experiment [2] was “Dose-dependent effect”.

With `CCCc1nc2ccc(-c3cccc(O)c3)cc2n1Cc1ccc(-c2ccccc2C(=O)O)cc1`, the pEC50 in experiment [1] is 5.39. Also, the Activity result in experiment [2] is “Dose-dependent effect”.

As for `CCCc1nc2cc(-c3ccccc3Cl)ccc2n1Cc1ccc(-c2ccccc2C(=O)O)cc1`, in experiment [1], the pEC50 is 6.03. In addition, the Activity entry in experiment [2] is “Dose-dependent effect”.

Consider `CCCc1nc2cc(-c3ccc(O)cc3)ccc2n1Cc1ccc(-c2ccccc2C(=O)O)cc1`, for which the pEC50 in experiment [1] is 6.00. Besides, in experiment [2], the Activity result is “Dose-dependent effect”.

Regarding `CCCc1nc2ccc(-c3ccccc3Cl)cc2n1Cc1ccc(-c2ccccc2C(=O)O)cc1`, in experiment [1], the pEC50 was 5.86. Moreover, the Activity entry in experiment [2] was “Dose-dependent effect”.

Consider `CCCc1nc2cc(-c3cccc(O)c3)ccc2n1Cc1ccc(-c2ccccc2C(=O)O)cc1`, for which the negative-log EC50 (pEC50) in experiment [1] is 5.90. The Activity entry in experiment [2] is “Dose-dependent effect”.

Take `CCCc1nc2ccc(-c3ccc(Cl)cc3)cc2n1Cc1ccc(-c2ccccc2C(=O)O)cc1`: the pEC50 in experiment [1] is 5.94. In addition, the Activity entry in experiment [2] was “Dose-dependent effect”.

As to `CCCc1nc2ccc(-c3ccc(OC)cc3)cc2n1Cc1ccc(-c2ccccc2C(=O)O)cc1`, the negative-log EC50 (pEC50) in experiment [1] was 6.00. Moreover, the Activity result in experiment [2] was “Dose-dependent effect”.

As to `CCCc1nc2cc(-c3cccc(OC)c3)ccc2n1Cc1ccc(-c2ccccc2C(=O)O)cc1`, the pEC50 in experiment [1] was 6.54. Moreover, in experiment [2], the Activity entry is “Dose-dependent effect”.

Turning to `CCCc1nc2ccccc2n1Cc1ccc(-c2ccccc2C(=O)O)cc1`, in experiment [1], the pEC50 was 5.19. Besides, the Activity result in experiment [2] is “Dose-dependent effect”.

On to `CCCc1nc2ccc(-c3ccc(O)cc3)cc2n1Cc1ccc(-c2ccccc2C(=O)O)cc1`, for which, in experiment [1], the negative logarithm of the EC50 (pEC50) was 5.53. In addition, in experiment [2], the Activity result is “Dose-dependent effect”.

For `CCCc1nc2cc(-c3ccc(Cl)cc3)ccc2n1Cc1ccc(-c2ccccc2C(=O)O)cc1`, the pEC50 in experiment [1] is 6.72. Moreover, the Activity result in experiment [2] was “Dose-dependent effect”.

`CCCc1nc2c(C)cc(-c3nc4ccccc4n3C)cc2n1Cc1ccc(-c2ccccc2C(=O)O)cc1`: the negative logarithm of the EC50 (pEC50) in experiment [1] is 5.30.
